Assay results reported in the supplement of paper PMC12420376.
± gives the uncertainty stated by the source.

What was measured:
KURAMOCHI = experiment: cancer cell viability relative to untreated control; higher = less cytotoxic; conditions: 72 h
Experimental: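 KURAMOCHI or OVCAR8 cells were grown in monoculture or in co-culture with WI38 or patient-derived 030F fibroblasts and treated for 72 h with a dose matrix of carboplatin combined with birinapant or vorinostat (doses in nM). Cancer cell viability was measured by CK8/18 immunofluorescence imaging and expressed as % of untreated control, given as mean with SD.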

Gem031 = ex vivo spheroids of an HRD-negative high-grade serous ovarian cancer; experiment: cell viability relative to untreated control (ex vivo patient spheroids); higher = less cytotoxic; conditions: 72 h
Experimental: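 Ex vivo 3D spheroid cultures from dissociated tumours of HGSOC patients (DET3CT platform) were treated for 72 h with dose matrices of carboplatin combined with birinapant or vorinostat (nM). Live (TMRM) and dead (POPO-1) cells were imaged and viability was expressed as % of untreated control.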

O=C(O)C1(C(=O)O)CCC1.[NH2-].[NH2-].[Pt+2] [Carboplatin] + CC[C@H](NC(=O)[C@H](C)NC)C(=O)N1C[C@@H](O)C[C@H]1Cc1c(-c2[nH]c3cc(F)ccc3c2C[C@@H]2C[C@H](O)CN2C(=O)[C@H](CC)NC(=O)[C@H](C)NC)[nH]c2cc(F)ccc12 [Birinapant]
cancer cell viability [%], KURAMOCHI
Conditions	partner drug concentration 0 nM	partner drug concentration 0.1 nM	partner drug concentration 1 nM	partner drug concentration 10 nM	partner drug concentration 100 nM	partner drug concentration 1000 nM
carboplatin concentration 10 nM, co-cultured fibroblast: 030F	95.1 ± 4.9	97.5 ± 8.3	93.4 ± 9.6	82.9 ± 11	81.5 ± 6.7	84.3 ± 10
carboplatin concentration 10 nM, co-cultured fibroblast: WI38	93.7 ± 9.7	94.4 ± 8.1	87.7 ± 13	85 ± 5.5	80.4 ± 7.3	77.7 ± 11
carboplatin concentration 10 nM, co-cultured fibroblast: none (monoculture)	101 ± 18	93.7 ± 18	90.3 ± 14	79.5 ± 11	73.8 ± 10	67.6 ± 13
carboplatin concentration 100 nM, co-cultured fibroblast: 030F	95.5 ± 11	92 ± 4.9	94.7 ± 5.6	95.6 ± 13	84.5 ± 6.8	85.6 ± 5.8
carboplatin concentration 100 nM, co-cultured fibroblast: WI38	91.6 ± 15	88.5 ± 9.4	90.5 ± 4.1	98.4 ± 11	86.1 ± 10	82.2 ± 6.1
carboplatin concentration 100 nM, co-cultured fibroblast: none (monoculture)	95.7 ± 20	89.2 ± 12	91.7 ± 11	97.3 ± 18	66.7 ± 13	67.3 ± 8.5
carboplatin concentration 1000 nM, co-cultured fibroblast: 030F	91.6 ± 11	92.2 ± 12	100 ± 4.1	91.7 ± 15	82.9 ± 10	87.1 ± 12
carboplatin concentration 1000 nM, co-cultured fibroblast: WI38	94.4 ± 11	99.2 ± 6.3	98.2 ± 13	97.8 ± 15	88.5 ± 10	77.5 ± 11
carboplatin concentration 1000 nM, co-cultured fibroblast: none (monoculture)	102 ± 21	95 ± 13	90.7 ± 10	90.3 ± 9.4	74.3 ± 12	61 ± 12
carboplatin concentration 1e+05 nM, co-cultured fibroblast: 030F	44.4 ± 13	50.4 ± 8.6	60.3 ± 15	52.9 ± 11	40.4 ± 9.8	54.9 ± 8.4
carboplatin concentration 1e+05 nM, co-cultured fibroblast: WI38	31.1 ± 12	41.9 ± 9	48 ± 18	43.7 ± 10	36.4 ± 10	44.2 ± 10
carboplatin concentration 1e+05 nM, co-cultured fibroblast: none (monoculture)	26.6 ± 5.7	33.6 ± 4.6	38.4 ± 6.9	37.9 ± 12	18.6 ± 8.4	24.4 ± 9.1
carboplatin concentration 10000 nM, co-cultured fibroblast: 030F	51.7 ± 15	80.8 ± 4.5	88.2 ± 9.3	88.8 ± 8.8	72.4 ± 14	71.7 ± 7.3
carboplatin concentration 10000 nM, co-cultured fibroblast: WI38	40.7 ± 4.7	80 ± 16	83.2 ± 7.4	91.4 ± 14	74.1 ± 10	69.9 ± 5
carboplatin concentration 10000 nM, co-cultured fibroblast: none (monoculture)	23.9 ± 5.7	95.4 ± 14	72.3 ± 9.8	84.6 ± 27	57.4 ± 8.2	51.8 ± 7

cell viability [%], Gem031
Conditions	partner drug concentration 0 nM	partner drug concentration 0.1 nM	partner drug concentration 1 nM	partner drug concentration 10 nM	partner drug concentration 100 nM	partner drug concentration 1000 nM
carboplatin concentration 10 nM	–	93	91.2	96	55.3	25.3
carboplatin concentration 100 nM	–	98.1	92.1	88.6	61.2	26.3
carboplatin concentration 1000 nM	–	98.6	91.8	93.6	56.8	24.8
carboplatin concentration 10000 nM	79.2	87	97.5	77.6	46.3	15.5
carboplatin concentration 100000 nM	26.3	26.1	27.6	22.9	11.4	3.6
